Test results as given in patent publication US20210205253A1, “Use Of Stearic Acid For Preventing Or Treating Pulmonary Fibrosis” (THE ASAN FOUNDATION, priority 2018, published 2021).

Tests used:
[1] = test system: primary fibroblasts isolated from lung tissues of patients with idiopathic pulmonary fibrosis; assay: Collagen 1 and α-SMA expression in primary fibroblasts from IPF patients; type: cell-based, human; details: 80 μM stearic acid
Protocol: In addition to the results in the Examples, the present inventors sought to verify the anti-fibrotic effect of stearic acid on fibroblasts derived from lung tissues in patients with idiopathic pulmonary fibrosis (IPF). For this purpose, after primary fibroblasts were isolated from lung tissues of the patients, and then the cells were treated with stearic acid at various concentrations for 24 hours, the expression levels of collagen 1 and α-SMA were measured (FIGS. 10A and 10B), fibroblasts obtained from 4 patients were treated with 80 μM stearic acid for 24 hours, and then the expression levels of collagen 1 and α-SMA were measured (FIG. 10C). In addition, after the expression of collagen type 1 and α-SMA was increased by inducing the fibrosis caused by TGF-β1 in patient-derived fibroblasts, the anti-fibrotic effect of stearic acid was verified (FIGS. 10D and 10E).

[2] = test system: human pulmonary fibroblasts (MRC-5); assay: Cell viability (MTT) of human pulmonary fibroblasts; type: cell-based; details: stearic acid 40 uM/mL + TGF-β 5 ng/mL, 24 h, versus TGF-β alone
Protocol: After epithelial cells and fibroblasts were aliquoted into 6-well plates at 2×10^4 cells/well and a stabilization time was imparted for 24 hours, and 15 hours after deficiency, cells were treated with stearic acid (40 uM/mL), TGF-β (5 ng/mL), and stearic acid (40 uM/mL)+TGF-β (5 ng/mL) in this order. After the cells were cultured in an incubator for 24 hours after the treatment, the next-step experiment was performed.
After a 24-hour cell stimulation by the method in Example 1-3 was completed, the medium of epithelial cells and fibroblasts was replaced with a general culture medium, 10 μl of an MTT solution (20 mg/ml) was further added, and then the outside of the plate was wrapped with aluminum foil and cells were cultured in an incubator for 2 hours. […] After 2 hours, cell activation was measured at an absorbance value of 595 nm using an ELISA reader.
For this purpose, after each culture (BEGM(Lonza) in the case of MRC-5, and BMEM (ATCC) in the case of BEAS-2B) of human pulmonary fibroblasts (MRC-5; ATCC® CCL171™) and human pulmonary epithelial cells (BEAS-2B; ATCC® CRL9609™) was treated with stearic acid (40 uM/mL), TGF-β (5 ng/mL; Sigma), or stearic acid (40 uM/mL)+TGF-β (5 ng/mL) by the method described in Example 1-3 for 24 hours, cell viability was measured by the method in Example 1-4. […]

[3] = primary fibroblasts from 4 patients with IPF, 24 h (FIG. 10C)

CCCCCCCCCCCCCCCCCC(=O)O [stearic acid]
basal level expression of collagen 1 ([1]; 24 h (FIGS. 10A, 10B)): significantly reduced
basal level expression of α-SMA ([1]; 24 h (FIGS. 10A, 10B)): significantly reduced
expression of collagen 1 ([1]; fibrosis induced by TGF-β1): significantly reduced
expression of α-SMA ([1]; fibrosis induced by TGF-β1): significantly reduced
basal level expression of collagen 1 [1, 3]: significantly reduced
basal level expression of α-SMA [1, 3]: significantly reduced
cell viability of pulmonary fibroblasts [2]: cell viability decreased
